Consider one molecule from article PMC7939384, “In crystallo screening for proline analog inhibitors of the proline cycle enzyme PYCR1” (The Journal of Biological Chemistry, 2021).

“And” between values parts separate entries of the source, which are not always exact repeats. Equal entries are not always repeated.

Assay [1] deals with T1, E. coli PutA PRODH domain (EcPutA86-630) (Escherichia coli, UniProt P09546).
T1 construct: Proline Utilization A from E. coli (EcPutA86-630)
Briefly: PRODH activity assay (o-AB/P5C adduct at 443 nm). Type of assay: biochemical. To be noted: 100 mM NFLP as substrate; 0, 1, 5 or 10 mM NFLP with 100 mM L-proline. How it is done:
The rates have been normalized to the rate obtained in the absence of NFLP.
Assays were performed to test whether NFLP is a substrate or inhibitor of PRODH. Because of challenges in obtaining active recombinant human PRODH, which is an inner mitochondrial membrane protein, these experiments used the PRODH domain of the bifunctional proline catabolic enzyme, Proline Utilization A from E. coli (EcPutA86-630). The active sites of human and bacterial PutA PRODH domains are very highly conserved. For example, all residues that contact proline analog inhibitors in crystal structures of bacterial PRODHs are identically present in human PRODH, as we described previously ([6]). Thus, bacterial PRODHs are considered to be good surrogates for identifying inhibitors of human PRODH. Indeed, the inhibitors discovered using bacterial PRODHs show on-target activity in cancer cells and animal models of cancer ([5], [21]).
PRODH activity was measured in a BioTek Epoch 2 microplate spectrophotometer by monitoring P5C as the adduct formed by the reaction with o-AB at 443 nm. The assays were conducted at 25°C in 20 mM MOPS, pH 7.5, and 10 mM MgCl2 with 4 mM o-AB, 0.15 mM menadione (electron acceptor to re-oxidize the FAD), and 1.3 μM of EcPutA86-630. The enzyme mixture contained EcPutA86-630, o-AB, menadione, and buffer. […]

The target of another assay is T2, human PYCR1 (Homo sapiens, UniProt P32322).
T2 sequence (P32322 1-300): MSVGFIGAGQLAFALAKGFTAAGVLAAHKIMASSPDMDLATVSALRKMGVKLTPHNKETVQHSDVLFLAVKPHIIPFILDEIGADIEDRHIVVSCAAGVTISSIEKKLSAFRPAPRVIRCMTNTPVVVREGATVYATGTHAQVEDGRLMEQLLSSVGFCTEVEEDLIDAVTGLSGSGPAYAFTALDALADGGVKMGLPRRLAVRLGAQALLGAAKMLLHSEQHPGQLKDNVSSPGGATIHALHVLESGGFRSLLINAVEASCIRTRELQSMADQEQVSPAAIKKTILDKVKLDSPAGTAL
Briefly: biochemical. The settings on record: for Ki: competitive with P5C, NADH fixed 175 μM. How it is done:
Over two dozen proline analogs (Fig. 2) were screened using electron density from X-ray crystallography as the readout for binding to human PYCR1. […] Because the compounds bind in the P5C/proline site, the mechanism of inhibition was assumed to be competitive with P5C. Therefore, steady-state kinetic measurements were performed with L-P5C as the variable substrate (0-1000 μM) and NADH fixed (175 μM) (Fig. 3). For each compound, the data were fit globally to a competitive inhibition model (Equation 1) to obtain an inhibition constant, Ki.
B, THFA. C, CPC. D, T4C. E, T2C. F, NFLP. The data were measured in 50 mM Tris (pH 7.5) with 1 mM EDTA disodium salt while holding NADH fixed at 175 μM and varying D,L-P5C (0–2000 μM). The concentration of the substrate L-P5C was considered to be half the total D,L-P5C concentration added to the assays. Curves represent global fits of the data to a competitive inhibition model showing initial velocity in units of µM [NAD^+] s^−1 as a function of L-P5C concentration (µM).
A C-terminal truncation variant of human PYCR1, which includes residues 1–300 of the full-length 319-residue enzyme, was used for kinetics and X-ray crystallography ([18]). PYCR1 was overexpressed in Escherichia coli BL21 (DE3) competent cells and purified using methods similar to those previously reported ([18]). Harvested cells were lysed via sonication in a mixture containing DNase I, lysozyme, and 0.2 mM phenylmethylsulfonyl fluoride protease inhibitor, and then the insoluble material was removed via centrifugation at 16,000 rpm for 1 h at 4°C. The resulting lysate was purified by gravity-flow chromatography on a column containing Ni^2+–nitrilotriacetic acid resin (Qiagen) pre-equilibrated with binding buffer consisting of 50 mM HEPES, 300 mM NaCl, 10 mM imidazole, and 5% (w/v) glycerol at pH 7.8 (buffer A). The column was washed with buffer A supplemented with 30 mM imidazole, and then the bound protein was eluted with buffer A supplemented with 300 mM imidazole. Elution fractions containing PYCR1 were identified by SDS-PAGE and prepared for further purification by size-exclusion chromatography by dialyzing into 300 mM NaCl, 2% (w/v) glycerol, and 50 mM HEPES at pH 7.5. Size-exclusion chromatography was performed on a HiLoad 16/600 Superdex 200 column equilibrated with 50 mM HEPES, pH 7.8, 300 mM NaCl, and 5% (w/v) glycerol. Purified PYCR1 was concentrated to 8 mg/ml and stored at 4°C for subsequent crystallization trials.
Kinetic measurements were performed in a BioTek Epoch 2 microplate spectrophotometer using Corning 96-well UV-transparent microplates. Activity assays were performed by monitoring the consumption of NADH at 340 nm (ε340 = 6220 M^−1 cm^−1) using P5C as the substrate. D,L-P5C was synthesized as described previously ([45]), quantified using o-aminobenzaldehyde (o-AB), and stored in 1 M HCl at 4°C. Neutralization of D,L-P5C to pH 7.5 was performed immediately prior to assays using 1 M Tris (pH 7.5) and 6 M NaOH. The concentration of the substrate L-P5C was assumed to be half the total D,L-P5C concentration added to the assays.
The following microplate protocol was employed. Substrate mixtures containing P5C, NADH, EDTA, and Tris buffer were prepared in a deep well block for each P5C concentration. Mixtures containing enzyme and various concentrations of the inhibitor were prepared in microcentrifuge tubes and incubated on ice in buffer containing 50 mM HEPES pH 7.8, 300 mM NaCl, and 5% (w/v) glycerol. The final concentration of PYCR1 in the assay was 6.25 nM. Twenty μl of the enzyme-analog mixture was added to microplate wells using a single-channel pipette, and then the reaction was initiated by addition of 180 μl of the substrate mixtures using a multi-channel pipettor. The reaction traces were followed for 35 min.

T1 sequence (P09546 86-630): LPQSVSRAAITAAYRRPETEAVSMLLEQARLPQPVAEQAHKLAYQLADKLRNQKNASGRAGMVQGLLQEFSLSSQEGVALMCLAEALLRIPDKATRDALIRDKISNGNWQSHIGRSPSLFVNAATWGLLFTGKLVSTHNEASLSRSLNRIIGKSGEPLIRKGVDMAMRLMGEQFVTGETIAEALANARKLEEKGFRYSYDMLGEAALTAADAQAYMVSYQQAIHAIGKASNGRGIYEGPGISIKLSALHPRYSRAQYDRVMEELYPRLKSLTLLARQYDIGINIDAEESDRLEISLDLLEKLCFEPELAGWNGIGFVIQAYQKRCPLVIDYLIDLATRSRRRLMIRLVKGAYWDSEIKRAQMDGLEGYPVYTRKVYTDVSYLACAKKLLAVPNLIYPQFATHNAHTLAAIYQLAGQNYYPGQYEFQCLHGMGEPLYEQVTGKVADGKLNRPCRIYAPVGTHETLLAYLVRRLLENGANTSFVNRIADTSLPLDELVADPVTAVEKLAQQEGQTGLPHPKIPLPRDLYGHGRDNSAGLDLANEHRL

One may read the Ki as a measure of affinity in units of concentration, obtained from inhibition or displacement. The kcat is the maximal rate divided by the concentration of active sites. As for `O=CN1CCC[C@H]1C(=O)O` [NFLP, N-formyl L-proline], the “substrate or inhibitor of bacterial PRODH (in words)” value in assay [1] is recorded as “neither a substrate nor an inhibitor”. Also, the Ki on human PYCR1 (Ki (estimated), rounded values) is 100 µM and ~100 µM; at human PYCR1 (Ki, 50 mM Tris pH 7.5, global fit) it was 99 ± 7.7 µM. For the same molecule, at human PYCR1 (NFLP relative to proline), the “binding free energy equivalent of the affinity increase” value is about 1.7 kcal/mol. The “increase in affinity by addition of the formyl group to proline” value at human PYCR1 (NFLP relative to proline) came out at 17 fold. In addition, the kcat at human PYCR1 (kcat for L-P5C at fixed NADH 175 μM, global fit of the data set with this analog) was 52 ± 2 s⁻¹.
